Entries after “also recorded” stand apart in the source; their conditions may differ. Read-outs that look alike come from different tables or passages of the source.
Columns and labels:
[1] = biological target: M1 (Homo sapiens, UniProt P11229); assay: GPCR antagonist screening assay; assay type: cell-based
[2] = biological target: CYP3A4 (Homo sapiens, UniProt P08684); assay: Metabolic enzyme phenotyping (chemical inhibitors, recombinant human P450); assay type: in vitro ADME
Source text: Other isoenzymes (CYP1A2, CYP2B6, CYP2C8, CYP2C9, CYP2C19 and CYP2D6) played a secondary or insignificant role in the formation of M1, M2, and M5.

[3] = test system: ALK+ human lung cancer LU-01-0015 xenograft; assay: PDX model, anti-tumor activity; assay type: in vivo
Description: (§1) The anti-tumor activity of WX-0593 was evaluated in two PDX models. […] WX-0593 was well-tolerated at all concentrations.

[4] = test system: ALK+ human lung cancer LU-01-0319 xenograft; assay: PDX model, anti-tumor activity; assay type: in vivo
Description: as §1

[5] = Metabolic stability in liver microsomes; assay type: in vitro ADME; settings: for half-life: read-out: elimination half-life
Source text: The objective of this study is to evaluate the metabolic stability of tested drug WX-0593 in CD-1 mice, SD rats, beagles, cynomolgus monkeys, and human liver microsomes.

[6] = test system: 21 GPCR targets; assay: GPCR agonist screening assay; assay type: cell-based; settings: all 21 GPCR targets
Source text: In the agonist screening assay, the activity percent at maximum dose of WX-0593 was all less than 50% for the 21 GPCR targets tested.

[7] = biological target: hERG (Homo sapiens, UniProt Q12809); assay: Inhibition of hERG currents; assay type: cell-based; settings: human; maximum tested dose 30 μM
Description: (§2) […]. Therefore, WX-0593 has a low risk of cardiotoxicity. There were no effects on the CNS and respiratory system in rats at doses of 3, 10, and 30 mg/kg. However, WX-0593 10 and 30 mg/kg may result in benign respiratory rate and decreases in minute ventilation in female rats. There were no effects on the cardiovascular system, blood pressure, ECG parameters or waveforms in monkeys at doses of 5, 10, and 25 mg/kg; 10 and 25 mg/kg may result in mild decreases in heart rate (within the normal range) and PR prolongation and QTc shortening associated with bradycardia within the normal range (no statistical difference when compared to the control arm). No cardiovascular system adverse reactions related to the test product were found. The human equivalent dose (using 60 kg) is 3636 mg/person in CNS, 3636 mg/person in male respiratory system and 363.6 mg/person in female respiratory system, and 607 mg/person in cardiovascular system.

[8] = biological target: hERG currents (Homo sapiens, UniProt Q12809); assay: Inhibition of hERG currents; assay type: cell-based
Description: as §2

[9] = Sprague-Dawley, rat, SD rats liver microsomes
[10] = beagle, dog, beagles liver microsomes
[11] = cynomolgus monkey, cynomolgus monkeys liver microsomes
[12] = mouse, CD-1 mice liver microsomes

Chain of CYP3A4 (P08684 whole entry): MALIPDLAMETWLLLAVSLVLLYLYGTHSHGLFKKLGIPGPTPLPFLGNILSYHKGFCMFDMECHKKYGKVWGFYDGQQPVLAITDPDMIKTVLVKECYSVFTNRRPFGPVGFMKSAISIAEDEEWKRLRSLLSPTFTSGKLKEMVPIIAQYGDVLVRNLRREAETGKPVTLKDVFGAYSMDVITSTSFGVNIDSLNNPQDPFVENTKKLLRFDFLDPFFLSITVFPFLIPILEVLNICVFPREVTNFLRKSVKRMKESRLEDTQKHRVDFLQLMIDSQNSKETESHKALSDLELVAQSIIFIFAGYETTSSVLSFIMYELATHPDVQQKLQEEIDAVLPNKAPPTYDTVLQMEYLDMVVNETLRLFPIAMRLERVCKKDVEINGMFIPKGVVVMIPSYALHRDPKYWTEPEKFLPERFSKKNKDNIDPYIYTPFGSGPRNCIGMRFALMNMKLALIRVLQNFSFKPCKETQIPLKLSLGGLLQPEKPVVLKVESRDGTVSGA
Chain of hERG currents (Q12809 whole entry): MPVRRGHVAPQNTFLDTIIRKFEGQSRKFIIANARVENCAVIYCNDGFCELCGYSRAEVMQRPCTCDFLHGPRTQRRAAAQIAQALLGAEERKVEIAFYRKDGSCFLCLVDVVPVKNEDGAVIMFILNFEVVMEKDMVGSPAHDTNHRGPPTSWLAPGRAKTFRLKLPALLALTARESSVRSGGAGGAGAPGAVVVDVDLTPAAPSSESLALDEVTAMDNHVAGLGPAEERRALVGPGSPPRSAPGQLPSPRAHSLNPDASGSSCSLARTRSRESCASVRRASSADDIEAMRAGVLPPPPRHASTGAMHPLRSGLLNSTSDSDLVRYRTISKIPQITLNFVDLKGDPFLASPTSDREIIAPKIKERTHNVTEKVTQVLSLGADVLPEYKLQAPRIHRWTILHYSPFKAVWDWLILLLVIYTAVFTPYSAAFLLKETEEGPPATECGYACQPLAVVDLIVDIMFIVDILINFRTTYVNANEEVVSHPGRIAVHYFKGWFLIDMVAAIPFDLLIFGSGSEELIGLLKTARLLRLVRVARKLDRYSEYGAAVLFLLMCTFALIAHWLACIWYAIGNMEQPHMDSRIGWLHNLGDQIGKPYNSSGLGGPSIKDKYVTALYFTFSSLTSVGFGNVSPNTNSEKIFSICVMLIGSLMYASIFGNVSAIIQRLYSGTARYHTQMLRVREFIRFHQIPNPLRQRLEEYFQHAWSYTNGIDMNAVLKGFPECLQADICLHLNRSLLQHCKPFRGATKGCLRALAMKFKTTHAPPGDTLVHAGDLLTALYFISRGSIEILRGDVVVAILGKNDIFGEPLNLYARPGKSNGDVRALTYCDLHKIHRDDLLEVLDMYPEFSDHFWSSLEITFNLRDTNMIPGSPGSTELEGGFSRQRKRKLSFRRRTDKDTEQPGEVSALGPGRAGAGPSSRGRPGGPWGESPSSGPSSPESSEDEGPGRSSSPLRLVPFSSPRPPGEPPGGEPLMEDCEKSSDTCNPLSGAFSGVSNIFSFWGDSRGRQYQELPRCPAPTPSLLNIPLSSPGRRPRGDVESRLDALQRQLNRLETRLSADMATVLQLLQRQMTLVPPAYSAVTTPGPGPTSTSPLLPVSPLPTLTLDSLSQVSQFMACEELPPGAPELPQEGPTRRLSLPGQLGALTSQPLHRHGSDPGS
Chain of hERG (Q12809 whole entry): as above
Chain of M1 (P11229 whole entry): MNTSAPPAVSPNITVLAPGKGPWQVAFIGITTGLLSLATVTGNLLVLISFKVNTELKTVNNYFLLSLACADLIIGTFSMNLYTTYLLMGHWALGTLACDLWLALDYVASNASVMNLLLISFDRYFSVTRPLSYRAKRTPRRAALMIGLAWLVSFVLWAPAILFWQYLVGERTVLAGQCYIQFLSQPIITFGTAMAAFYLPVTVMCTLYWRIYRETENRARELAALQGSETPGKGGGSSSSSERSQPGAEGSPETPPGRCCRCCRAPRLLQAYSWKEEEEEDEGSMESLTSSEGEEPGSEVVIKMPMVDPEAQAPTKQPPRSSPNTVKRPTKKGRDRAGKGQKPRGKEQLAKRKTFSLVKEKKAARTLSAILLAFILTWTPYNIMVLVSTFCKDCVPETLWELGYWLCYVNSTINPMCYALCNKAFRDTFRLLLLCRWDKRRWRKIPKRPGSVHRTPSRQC

Question: Which IC50 [1] does the source give for `COc1cc(N2CCC3(CCN(C)CC3)CC2)ccc1Nc1ncc(Cl)c(Nc2ccccc2P(C)(C)=O)n1` [WX-0593] here?
Answer: > 10 µM

Question: What about the “major metabolic enzyme (formation of M1, M2, M5)” value [2] of the same molecule?
Answer: primarily metabolized by CYP3A4; also recorded: CYP3A4 is the major metabolic enzyme

Question: What about the anti-tumor activity ([3]; 15 mg/kg, 10 mg/kg (D0–D7)/2.5 mg/kg (D8–D27), 5 mg/kg) of the same molecule?
Answer: significant anti-tumor activity

Question: What about the body weight ([3]; all treatment arms) of the same molecule?
Answer: no significant decrease in weight

Question: What about the anti-tumor activity ([4]; 1, 2.5 and 5 mg/kg) of the same molecule?
Answer: good anti-tumor activity

Question: And the mean body weight ([4]; all treatment arms)?
Answer: no significant decrease in mean weight

Question: What about the CLint scaled [5, 9] of the same molecule?
Answer: < 1.04 L/h/kg

Question: What about the half-life [5, 9] of the same molecule?
Answer: > 2.42 h

Question: What about the CLint scaled [5, 10] of the same molecule?
Answer: 0.882 L/h/kg

Question: What about the half-life [5, 10] of the same molecule?
Answer: 2.27 h

Question: And the CLint scaled [5, 11]?
Answer: < 0.78 L/h/kg

Question: And the half-life [5, 11]?
Answer: > 2.42 h

Question: What about the CLint scaled ([5]; human liver microsomes) of the same molecule?
Answer: < 0.57 L/h/kg

Question: And the half-life ([5]; human liver microsomes)?
Answer: > 2.42 h

Question: What about the CLint scaled [5, 12] of the same molecule?
Answer: 3.14 L/h/kg

Question: What about the half-life [5, 12] of the same molecule?
Answer: 1.75 h

Question: And the “activity percent at maximum dose (agonist)” value [6]?
Answer: less than 50%

Question: What about the EC50 ([6]; highest dose detected) of the same molecule?
Answer: > 133 µM

Question: And the inhibition at 30 μM [7]?
Answer: 58.1%

Question: What about the IC50 [8] of the same molecule?
Answer: 20 µM

Question: What about the hERG slope [8] of the same molecule?
Answer: 0.95

Source: publication PMC8795197, “Safety and activity of WX-0593 (Iruplinalkib) in patients with ALK- or ROS1-rearranged advanced non-small cell lung cancer: a phase 1 dose-escalation and dose-expansion trial” (Signal Transduction and Targeted Therapy, 2022)
